Key:
[1] = xn = mol fraction of the nth substance listed; settings: 101 kPa, Liquid
[2] = refractive index (Na D-line) (dimensionless); xn = mol fraction of the nth substance listed; settings: 101 kPa, Liquid, Standard Abbe refractometry
[3] = refractive index (Na D-line) (dimensionless); settings: 101.33 kPa, Liquid, Standard Abbe refractometry
[4] = 101 kPa, Liquid

CCCCl [1-chloropropane] + C1COCCO1
Settings	mass density, [1] [kg/m3]	refractive index, [2]
298.15 K, x2 = 0	884.26	1.3856
298.15 K, x2 = 0.1027	898.64	1.38919
298.15 K, x2 = 0.2077	913.41	1.39281
298.15 K, x2 = 0.3029	926.89	1.39609
298.15 K, x2 = 0.4034	941.19	1.39957
298.15 K, x2 = 0.506	955.87	1.40308
298.15 K, x2 = 0.6062	970.28	1.40651
298.15 K, x2 = 0.706	984.73	1.4099
298.15 K, x2 = 0.8081	999.6	1.41336
298.15 K, x2 = 0.9059	1013.96	1.41673
298.15 K, x2 = 0.9486	1020.26	1.41818
313.15 K, x2 = 0	865.14	1.37673
313.15 K, x2 = 0.1009	879.74	1.38047
313.15 K, x2 = 0.2026	894.27	1.38432
313.15 K, x2 = 0.3067	909.2	1.38812
313.15 K, x2 = 0.4061	923.53	1.39169
313.15 K, x2 = 0.5056	937.97	1.39523
313.15 K, x2 = 0.6044	952.38	1.39872
313.15 K, x2 = 0.7114	968.04	1.40252
313.15 K, x2 = 0.8026	981.42	1.40576
313.15 K, x2 = 0.9011	995.98	1.40922
313.15 K, x2 = 0.951	1003.38	1.41097

CC(C)(C)Cl [2-chloro-2-methylpropane]
Settings	mass density, [4] [kg/m3]	refractive index, [3]
298.15 K	836.45	1.38224
313.15 K	818.31	1.37314

CC(C)(C)Cl [2-chloro-2-methylpropane] + C1COCCO1
Settings	mass density, [1] [kg/m3]	refractive index, [2]
298.15 K, x2 = 0	836.45	1.38224
298.15 K, x2 = 0.0458	844.01	1.38393
298.15 K, x2 = 0.1594	862.91	1.38814
298.15 K, x2 = 0.2576	879.78	1.39182
298.15 K, x2 = 0.3925	904.15	1.39689
298.15 K, x2 = 0.4632	917.47	1.39956
298.15 K, x2 = 0.5569	935.61	1.40312
298.15 K, x2 = 0.6611	956.29	1.40709
298.15 K, x2 = 0.7458	973.39	1.41033
298.15 K, x2 = 0.8395	992.69	1.4139
298.15 K, x2 = 0.9222	1010.32	1.41703
298.15 K, x2 = 0.9639	1019.57	1.41861
313.15 K, x2 = 0	818.31	1.37314
313.15 K, x2 = 0.0485	826.29	1.37502
313.15 K, x2 = 0.0903	833.3	1.37667
313.15 K, x2 = 0.2192	855.58	1.38175
313.15 K, x2 = 0.2827	866.86	1.38423
313.15 K, x2 = 0.3966	887.59	1.3888
313.15 K, x2 = 0.5029	907.54	1.39301
313.15 K, x2 = 0.6039	927.14	1.39702
313.15 K, x2 = 0.7025	946.96	1.40092
313.15 K, x2 = 0.8138	970.21	1.40529
313.15 K, x2 = 0.8959	987.89	1.4085
313.15 K, x2 = 0.9612	1002.17	1.41105

CCC(C)Cl (stereo not drawn) [2-chlorobutane]
Settings	mass density, [4] [kg/m3]	refractive index, [3]
298.15 K	867.4	1.39404
313.15 K	850.13	1.38573

CCC(C)Cl (stereo not drawn) [2-chlorobutane] + C1COCCO1
Settings	mass density, [1] [kg/m3]	refractive index, [2]
298.15 K, x2 = 0	867.4	1.39404
298.15 K, x2 = 0.0417	872.75	1.3949
298.15 K, x2 = 0.1061	881.2	1.3963
298.15 K, x2 = 0.2514	901.2	1.3996
298.15 K, x2 = 0.3493	915.42	1.40193
298.15 K, x2 = 0.4771	934.94	1.40512
298.15 K, x2 = 0.5563	947.61	1.40721
298.15 K, x2 = 0.6462	962.58	1.40961
298.15 K, x2 = 0.7343	977.89	1.41208
298.15 K, x2 = 0.8244	994.21	1.41466
298.15 K, x2 = 0.9112	1010.56	1.41725
298.15 K, x2 = 0.9891	1025.72	1.41962
313.15 K, x2 = 0	850.13	1.38573
313.15 K, x2 = 0.0475	856.2	1.38674
313.15 K, x2 = 0.1318	867.4	1.38865
313.15 K, x2 = 0.239	882.36	1.3912
313.15 K, x2 = 0.3413	897.3	1.39378
313.15 K, x2 = 0.4574	915.03	1.39683
313.15 K, x2 = 0.5546	930.53	1.39949
313.15 K, x2 = 0.6429	945.17	1.40195
313.15 K, x2 = 0.7326	960.65	1.40449
313.15 K, x2 = 0.8209	976.52	1.40709
313.15 K, x2 = 0.9121	993.58	1.40985
313.15 K, x2 = 0.9525	1001.37	1.41113

— the NIST ThermoML archive (doi:10.1016/j.jct.2006.05.003)
